According to article PMC9322451 (Clinical Pharmacology in Drug Development, 2022):
pIC50: −log10 of the molar value.

What was measured:
[1] = design: method as in unpublished data; conditions: oral or intravenous 14C‐brensocatib, rats; ref unpublished data; cited from earlier work
[2] = test system: CYP1A2; design: method as in unpublished data; conditions: ref unpublished data; cited from earlier work
[3] = Phase 1 part B: safety (TEAEs); format: in vivo, human; conditions: for Any TEAE / Serious TEAE / Severe TEAE / TEAE leading to death / TEAE leading to discontinuation / Abdominal pain upper (TEAE by preferred term) / Decreased appetite (TEAE by preferred term) / Dry skin (TEAE by preferred term) / Headache (TEAE by preferred term) / Skin exfoliation (TEAE by preferred term) / Skin lesion (TEAE by preferred term): Part B, 40 mg; for participants reporting skin exfoliation / participants who experienced a TEAE / number of TEAEs reported: part B
Protocol: Participants were admitted to the clinical unit the day before doses were administered on days 1 and 8 and discharged on days 2 and 9, after collection of the 36‐hour postdose PK sample. The washout period between doses was 7 days. […] After dosing, participants were required to remain upright for at least 2 hours and refrain from food and drink for at least 4 hours; water was allowed after 2 hours.
Safety was assessed from the signing of informed consent until the end of study and included the following variables: treatment‐emergent adverse events (TEAEs), serious adverse events (SAEs), clinical laboratory tests (clinical chemistry, hematology, coagulation [part A only], and urinalysis), vital signs, 12‐lead ECG, primary Holter monitoring, and physical examinations (including evaluation of teeth and gingiva, and evaluation of palms and soles). Because of the mechanism of action of brensocatib, findings of hyperkeratosis, periodontitis/gingivitis, and other infections were reported as adverse events of special interest (AESIs). Renal function (part A only) was monitored by measuring serum creatinine and blood urea nitrogen, performing routine urinalysis, and measuring neutrophil gelatinase–associated lipocalin and cystatin.
Adverse events (AEs) observed before the first dosing were recorded as medical history. All medical history and AEs were coded using the Medical Dictionary for Regulatory Activities (version 21.1 or higher). A TEAE was defined as an AE that began or worsened in severity after at least 1 dose of study drug was administered. All AEs experienced by a participant were monitored until the event had resolved, any abnormal laboratory values returned to baseline or stabilized, a satisfactory explanation for the changes was identified, or the participant was lost to follow‐up.

[4] = test system: P‐gp; design: method as in unpublished data; conditions: ref unpublished data, read-out: half maximal inhibitory concentration; cited from earlier work
[5] = test system: breast cancer resistance protein; design: method as in unpublished data; conditions: ref unpublished data; cited from earlier work

Q: What does the source list for `Cn1c(=O)oc2ccc(-c3ccc(C[C@@H](C#N)NC(=O)[C@@H]4CNCCCO4)cc3)cc21` [Brensocatib]?
A: brensocatib in plasma, share of total radioactivity exposure [1]: > 80%; most abundant metabolite in plasma, share of total radioactivity exposure [1]: ≈ 3%; CYP induction (significant inducer or not) [2]: not a significant; Any TEAE ([3]; Japanese, Fasted (n=5)): 0 n (%); Serious TEAE ([3]; Japanese, Fasted (n=5)): 0 n (%); Severe TEAE ([3]; Japanese, Fasted (n=5)): 0 n (%); TEAE leading to death ([3]; Japanese, Fasted (n=5)): 0 n (%); TEAE leading to discontinuation ([3]; Japanese, Fasted (n=5)): 0 n (%); Abdominal pain upper (TEAE by preferred term) ([3]; Japanese, Fasted (n=10)): 0 n (%); Decreased appetite (TEAE by preferred term) ([3]; Japanese, Fasted (n=10)): 0 n (%); Dry skin (TEAE by preferred term) ([3]; Japanese, Fasted (n=10)): 0 n (%); Headache (TEAE by preferred term) ([3]; Japanese, Fasted (n=10)): 0 n (%); Skin exfoliation (TEAE by preferred term) ([3]; Japanese, Fasted (n=10)): 0 n (%); Skin lesion (TEAE by preferred term) ([3]; Japanese, Fasted (n=10)): 0 n (%); Any TEAE ([3]; Japanese, Fed (n=5)): 3 (60.0) n (%); Serious TEAE ([3]; Japanese, Fed (n=5)): 0 n (%); Severe TEAE ([3]; Japanese, Fed (n=5)): 0 n (%); TEAE leading to death ([3]; Japanese, Fed (n=5)): 0 n (%); TEAE leading to discontinuation ([3]; Japanese, Fed (n=5)): 0 n (%); Abdominal pain upper (TEAE by preferred term) ([3]; Japanese, Fed (n=9)): 1 (11.1) n (%); Decreased appetite (TEAE by preferred term) ([3]; Japanese, Fed (n=9)): 1 (11.1) n (%); Dry skin (TEAE by preferred term) ([3]; Japanese, Fed (n=9)): 0 n (%); Headache (TEAE by preferred term) ([3]; Japanese, Fed (n=9)): 1 (11.1) n (%); Skin exfoliation (TEAE by preferred term) ([3]; Japanese, Fed (n=9)): 1 (11.1) n (%); Skin lesion (TEAE by preferred term) ([3]; Japanese, Fed (n=9)): 0 n (%); Abdominal pain upper (TEAE by preferred term) ([3]; Japanese, Total (N=10)): 1 (10.0) n (%); Any TEAE ([3]; Japanese, Total (N=10)): 3 (30.0) n (%); Decreased appetite (TEAE by preferred term) ([3]; Japanese, Total (N=10)): 1 (10.0) n (%); Dry skin (TEAE by preferred term) ([3]; Japanese, Total (N=10)): 0 n (%); Headache (TEAE by preferred term) ([3]; Japanese, Total (N=10)): 1 (10.0) n (%); Serious TEAE ([3]; Japanese, Total (N=10)): 0 n (%); Severe TEAE ([3]; Japanese, Total (N=10)): 0 n (%); Skin exfoliation (TEAE by preferred term) ([3]; Japanese, Total (N=10)): 1 (10.0) n (%); Skin lesion (TEAE by preferred term) ([3]; Japanese, Total (N=10)): 0 n (%); TEAE leading to death ([3]; Japanese, Total (N=10)): 0 n (%); TEAE leading to discontinuation ([3]; Japanese, Total (N=10)): 0 n (%); Any TEAE ([3]; White, Fasted (n=5)): 1 (20.0) n (%); Serious TEAE ([3]; White, Fasted (n=5)): 0 n (%); Severe TEAE ([3]; White, Fasted (n=5)): 0 n (%); TEAE leading to death ([3]; White, Fasted (n=5)): 0 n (%); TEAE leading to discontinuation ([3]; White, Fasted (n=5)): 0 n (%); Abdominal pain upper (TEAE by preferred term) ([3]; White, Fasted (n=10)): 0 n (%); Decreased appetite (TEAE by preferred term) ([3]; White, Fasted (n=10)): 0 n (%); Dry skin (TEAE by preferred term) ([3]; White, Fasted (n=10)): 0 n (%); Headache (TEAE by preferred term) ([3]; White, Fasted (n=10)): 0 n (%); Skin exfoliation (TEAE by preferred term) ([3]; White, Fasted (n=10)): 0 n (%); Skin lesion (TEAE by preferred term) ([3]; White, Fasted (n=10)): 1 (10.0) n (%); Any TEAE ([3]; White, Fed (n=5)): 2 (40.0) n (%); Serious TEAE ([3]; White, Fed (n=5)): 0 n (%); Severe TEAE ([3]; White, Fed (n=5)): 0 n (%); TEAE leading to death ([3]; White, Fed (n=5)): 0 n (%); TEAE leading to discontinuation ([3]; White, Fed (n=5)): 0 n (%); Abdominal pain upper (TEAE by preferred term) ([3]; White, Fed (n=10)): 0 n (%); Decreased appetite (TEAE by preferred term) ([3]; White, Fed (n=10)): 0 n (%); Dry skin (TEAE by preferred term) ([3]; White, Fed (n=10)): 1 (10.0) n (%); Headache (TEAE by preferred term) ([3]; White, Fed (n=10)): 0 n (%); Skin exfoliation (TEAE by preferred term) ([3]; White, Fed (n=10)): 1 (10.0) n (%); Skin lesion (TEAE by preferred term) ([3]; White, Fed (n=10)): 0 n (%); Abdominal pain upper (TEAE by preferred term) ([3]; White, Total (N=10)): 0 n (%); Any TEAE ([3]; White, Total (N=10)): 3 (30.0) n (%); Decreased appetite (TEAE by preferred term) ([3]; White, Total (N=10)): 0 n (%); Dry skin (TEAE by preferred term) ([3]; White, Total (N=10)): 1 (10.0) n (%); Headache (TEAE by preferred term) ([3]; White, Total (N=10)): 0 n (%); Serious TEAE ([3]; White, Total (N=10)): 0 n (%); Severe TEAE ([3]; White, Total (N=10)): 0 n (%); Skin exfoliation (TEAE by preferred term) ([3]; White, Total (N=10)): 1 (10.0) n (%); Skin lesion (TEAE by preferred term) ([3]; White, Total (N=10)): 1 (10.0) n (%); TEAE leading to death ([3]; White, Total (N=10)): 0 n (%); TEAE leading to discontinuation ([3]; White, Total (N=10)): 0 n (%); participants reporting skin exfoliation ([3]; Japanese): 10.0%; participants who experienced a TEAE ([3]; Japanese): 30.0%; number of TEAEs reported ([3]; Japanese, fasted conditions): none; number of TEAEs reported ([3]; Japanese, fed conditions): 4; participants reporting skin exfoliation ([3]; White): 10.0%; participants who experienced a TEAE ([3]; White): 30.0%; number of TEAEs reported ([3]; White, fasted conditions): 1; number of TEAEs reported ([3]; White, fed conditions): 2; pIC50 [4]: < 4.96; substrate status [5]: substrate
